Data from BindingDB's records for doi:10.1021/jm00145a012 (1985).

target: Dihydrofolate reductase (Bos taurus) (UniProt P00376); assay: In vitro inhibitory concentration against beef liver dihydrofolate reductase
Sequence (P00376 whole entry, looked up): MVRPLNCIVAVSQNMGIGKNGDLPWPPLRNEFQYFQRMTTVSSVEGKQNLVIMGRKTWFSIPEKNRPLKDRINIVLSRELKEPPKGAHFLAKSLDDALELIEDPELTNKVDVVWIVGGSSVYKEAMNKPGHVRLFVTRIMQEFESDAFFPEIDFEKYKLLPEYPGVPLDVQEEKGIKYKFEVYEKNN

Row | IC50 [µM] | Compound
1 | 49 | Nc1nc2ncc(CCc3ccc(C(=O)N[C@@H](CCC(=O)O)C(=O)O)cc3)cc2c(=O)[nH]1
2 | 0.071 | Nc1nc(N)c2c(n1)NCC(CCc1ccc(C(=O)NC(CCC(=O)O)C(=O)O)cc1)C2 (centres undefined) [2-{4-[2-(2,4-Diamino-5,6,7,8-tetrahydro-pyrido[2,3-d]pyrimidin-6-yl)-ethyl]-benzoylamino}-pentanedioic acid]
3 | 0.043 | Nc1nc(N)c2cc(CCc3ccc(C(=O)NC(CCC(=O)O)C(=O)O)cc3)cnc2n1 (centres undefined) [2-{4-[2-(2,4-Diamino-pyrido[2,3-d]pyrimidin-6-yl)-ethyl]-benzoylamino}-pentanedioic acid]
4 | 560 | Nc1nc2c(c(=O)[nH]1)CC(CCc1ccc(C(=O)NC(CCC(=O)O)C(=O)O)cc1)CN2 (centres undefined) [(DDATHF) 5,10-Dideazatetrahydrofolic acid2-{4-[2-(2-Amino-4-oxo-3,4,5,6,7,8-hexahydro-pyrido[2,3-d]pyrimidin-6-yl)-ethyl]-benzoylamino}-pentanedioic acid]
